“And” between values parts separate entries of the source, which are not always exact repeats. Equal values may be shown once.
Key:
[1] = ABTS radical cation free radical scavenging (bleaching of absorbance at 734 nm); assay type: biochemical; conditions: ABTSY+ 450 micromolar, pH 7.4
Source text: A radical cation of 2,2′-azino-bis(3-ethylbenzthiazoline-6-sulfonic acid) diammonium salt (ABTS) was generated by oxidation with manganese dioxide, forming the blue-green radical cation ABTSY+ with spectrophotometric absorbance at 734 nanommeters (nm). The reaction was initiated by the addition of 23CPPA (5-40 micromolar) to ABTSY+ (450 micromolar) in phosphate buffer (75 millimolar, pH 7.4) and decay of the blue-green radical cation absorbance was monitored over time. Absorbance profiles were obtained with incubation in phosphate buffer (75 millimolar, pH 7.4) as control. The reaction of anti-oxidants with stable free radicals such as ABTSY+ that is generated from ABTS measures their free radical scavenging capacities.

[2] = Brain penetration following oral administration in rats (HPLC/MS/MS); assay type: in vivo; conditions: rat; sodium salt by gavage 15 and 60 mg/kg
Procedure: Rat hemi brains were obtained 1,4 and 6 hours after administration by gavage of the sodium salt of 23CPPA at doses of 15 and 60 mg/kg and were mixed with two equivalents of water and homogenized. The resulting homogenate was extracted with acetonitrile containing internal standard and concentrations of the compound were analyzed by high pressure liquid chromatography/two stage mass spectrometry (HPLC/MS/MS). Plasma samples also were collected from the same rats at these time points for measurement of plasma concentrations of the compound.

[3] = Ultraviolet absorption spectrum; assay type: physicochemical
Source text: Ultraviolet (UV) absorption peaks of 2-(3-chlorophenylamino)phenylacetic acid at 211 and 283 nm, encompassing wavelength range of medium wave UVB (315-280 nm) and short wave UVC (280-190 nm).

Question: Which results are given for `O=C(O)Cc1ccccc1Nc1cccc(Cl)c1` [23CPPA, 2-[(3-chlorophenyl)amino] phenylacetic acid]?
Answer: Decay (% of starting absorbance) ([1]; 23CPPA 5 micromolar, 1 minute): 74 % of starting absorbance; Decay (% of starting absorbance) ([1]; 23CPPA 5 micromolar, 2 minutes): 72 % of starting absorbance; Decay (% of starting absorbance) ([1]; 23CPPA 5 micromolar, 3 minutes): 69 % of starting absorbance; Decay (% of starting absorbance) ([1]; 23CPPA 5 micromolar, 4 minutes): 67 % of starting absorbance; Decay (% of starting absorbance) ([1]; 23CPPA 5 micromolar, 5 minutes): 65 % of starting absorbance; Decay (% of starting absorbance) ([1]; 23CPPA 5 micromolar, 6 minutes): 63 % of starting absorbance; Decay (% of starting absorbance) ([1]; 23CPPA 5 micromolar, 7 minutes): 61 % of starting absorbance; Decay (% of starting absorbance) ([1]; 23CPPA 5 micromolar, 8 minutes): 60 % of starting absorbance; Decay (% of starting absorbance) ([1]; 23CPPA 5 micromolar, 9 minutes): 58 % of starting absorbance; Decay (% of starting absorbance) ([1]; 23CPPA 5 micromolar, 10 minutes): 56 % of starting absorbance; Decay (% of starting absorbance) ([1]; 23CPPA 5 micromolar, 11 minutes): 55 % of starting absorbance; Decay (% of starting absorbance) ([1]; 23CPPA 5 micromolar, 12 minutes): 53 % of starting absorbance; Decay (% of starting absorbance) ([1]; 23CPPA 5 micromolar, 13 minutes): 52 % of starting absorbance; Decay (% of starting absorbance) ([1]; 23CPPA 5 micromolar, 14 minutes): 51 % of starting absorbance; Decay (% of starting absorbance) ([1]; 23CPPA 5 micromolar, 15 minutes): 49 % of starting absorbance; Decay (% of starting absorbance) ([1]; 23CPPA 10 micromolar, 1 minute): 57 % of starting absorbance; Decay (% of starting absorbance) ([1]; 23CPPA 10 micromolar, 2 minutes): 56 % of starting absorbance; Decay (% of starting absorbance) ([1]; 23CPPA 10 micromolar, 3 minutes): 53 % of starting absorbance; Decay (% of starting absorbance) ([1]; 23CPPA 10 micromolar, 4 minutes): 52 % of starting absorbance; Decay (% of starting absorbance) ([1]; 23CPPA 10 micromolar, 5 minutes): 51 % of starting absorbance; Decay (% of starting absorbance) ([1]; 23CPPA 10 micromolar, 6 minutes): 50 % of starting absorbance; Decay (% of starting absorbance) ([1]; 23CPPA 10 micromolar, 7 minutes): 48 % of starting absorbance; Decay (% of starting absorbance) ([1]; 23CPPA 10 micromolar, 8 minutes): 47 % of starting absorbance; Decay (% of starting absorbance) ([1]; 23CPPA 10 micromolar, 9 minutes): 46 % of starting absorbance; Decay (% of starting absorbance) ([1]; 23CPPA 10 micromolar, 10 minutes): 44 % of starting absorbance; Decay (% of starting absorbance) ([1]; 23CPPA 10 micromolar, 11 minutes): 44 % of starting absorbance; Decay (% of starting absorbance) ([1]; 23CPPA 10 micromolar, 12 minutes): 43 % of starting absorbance; Decay (% of starting absorbance) ([1]; 23CPPA 10 micromolar, 13 minutes): 43 % of starting absorbance; Decay (% of starting absorbance) ([1]; 23CPPA 10 micromolar, 14 minutes): 42 % of starting absorbance; Decay (% of starting absorbance) ([1]; 23CPPA 10 micromolar, 15 minutes): 42 % of starting absorbance; Decay (% of starting absorbance) ([1]; 23CPPA 20 micromolar, 1 minute): 37 % of starting absorbance; Decay (% of starting absorbance) ([1]; 23CPPA 20 micromolar, 2 minutes): 27 % of starting absorbance; Decay (% of starting absorbance) ([1]; 23CPPA 20 micromolar, 3 minutes): 23 % of starting absorbance; Decay (% of starting absorbance) ([1]; 23CPPA 20 micromolar, 4 minutes): 20 % of starting absorbance; Decay (% of starting absorbance) ([1]; 23CPPA 20 micromolar, 5 minutes): 17 % of starting absorbance; Decay (% of starting absorbance) ([1]; 23CPPA 20 micromolar, 6 minutes): 14 % of starting absorbance; Decay (% of starting absorbance) ([1]; 23CPPA 20 micromolar, 7 minutes): 13 % of starting absorbance; Decay (% of starting absorbance) ([1]; 23CPPA 20 micromolar, 8 minutes): 12 % of starting absorbance; Decay (% of starting absorbance) ([1]; 23CPPA 20 micromolar, 9 minutes): 12 % of starting absorbance; Decay (% of starting absorbance) ([1]; 23CPPA 20 micromolar, 10 minutes): 11 % of starting absorbance; Decay (% of starting absorbance) ([1]; 23CPPA 20 micromolar, 11 minutes): 10 % of starting absorbance; Decay (% of starting absorbance) ([1]; 23CPPA 20 micromolar, 12 minutes): 10 % of starting absorbance; Decay (% of starting absorbance) ([1]; 23CPPA 20 micromolar, 13 minutes): 9 % of starting absorbance; Decay (% of starting absorbance) ([1]; 23CPPA 20 micromolar, 14 minutes): 9 % of starting absorbance; Decay (% of starting absorbance) ([1]; 23CPPA 20 micromolar, 15 minutes): 9 % of starting absorbance; Decay (% of starting absorbance) ([1]; 23CPPA 40 micromolar, 1 minute): 20 % of starting absorbance; Decay (% of starting absorbance) ([1]; 23CPPA 40 micromolar, 2 minutes): 20 % of starting absorbance; Decay (% of starting absorbance) ([1]; 23CPPA 40 micromolar, 3 minutes): 3 % of starting absorbance; Decay (% of starting absorbance) ([1]; 23CPPA 40 micromolar, 4 minutes): 1 % of starting absorbance; Decay (% of starting absorbance) ([1]; 23CPPA 40 micromolar, 5 minutes): 0 % of starting absorbance; Decay (% of starting absorbance) ([1]; 23CPPA 40 micromolar, 6 minutes): 0 % of starting absorbance; Decay (% of starting absorbance) ([1]; 23CPPA 40 micromolar, 7 minutes): 0 % of starting absorbance; Decay (% of starting absorbance) ([1]; 23CPPA 40 micromolar, 8 minutes): 0 % of starting absorbance; Decay (% of starting absorbance) ([1]; 23CPPA 40 micromolar, 9 minutes): 0 % of starting absorbance; Decay (% of starting absorbance) ([1]; 23CPPA 40 micromolar, 10 minutes): 0 % of starting absorbance; Decay (% of starting absorbance) ([1]; 23CPPA 40 micromolar, 11 minutes): 0 % of starting absorbance; Decay (% of starting absorbance) ([1]; 23CPPA 40 micromolar, 12 minutes): 0 % of starting absorbance; Decay (% of starting absorbance) ([1]; 23CPPA 40 micromolar, 13 minutes): 0 % of starting absorbance; Decay (% of starting absorbance) ([1]; 23CPPA 40 micromolar, 14 minutes): 0 % of starting absorbance; Decay (% of starting absorbance) ([1]; 23CPPA 40 micromolar, 15 minutes): 0 % of starting absorbance; Dose dependence of brain concentrations [2]: dose proportional; Ultraviolet (UV) absorption peaks [3]: 211 nm and 283 nm; Absorbance ([3]; wavelength 190 nm): 0.5; Absorbance ([3]; wavelength 195 nm): 0.75; Absorbance ([3]; wavelength 197 nm): 1.0; Absorbance ([3]; wavelength 198 nm): 1.25; Absorbance ([3]; wavelength 199 nm): 1.5; Absorbance ([3]; wavelength 205 nm): 2.0; Absorbance ([3]; wavelength 208 nm): 2.1; Absorbance ([3]; wavelength 211 nm): 2.2; Absorbance ([3]; wavelength 212 nm): 2.0; Absorbance ([3]; wavelength 220 nm): 1.25; Absorbance ([3]; wavelength 222 nm): 1.0; Absorbance ([3]; wavelength 232 nm): 0.5; Absorbance ([3]; wavelength 235 nm): 0.45; Absorbance ([3]; wavelength 239 nm): 0.43; Absorbance ([3]; wavelength 243 nm): 0.43; Absorbance ([3]; wavelength 249 nm): 0.43; Absorbance ([3]; wavelength 252 nm): 0.43; Absorbance ([3]; wavelength 256 nm): 0.43; Absorbance ([3]; wavelength 260 nm): 0.5; Absorbance ([3]; wavelength 272 nm): 0.75; Absorbance ([3]; wavelength 283 nm): 0.93; Absorbance ([3]; wavelength 291 nm): 0.75; Absorbance ([3]; wavelength 300 nm): 0.5; Absorbance ([3]; wavelength 308 nm): 0.25; Absorbance ([3]; wavelength 325 nm): 0

— US20170157010A1, “METHODS AND COMPOSITIONS FOR TREATMENT OF DISORDERS ASSOCIATED WITH DAMAGE INDUCED BY FREE RADICALS” (Glycadia, Inc., priority 2015, published 2017)
